Like-named read-outs stand apart in the source and are kept apart here. Marks after values point to notes of the source that are not given here.

This is an account of results in patent US7399638B2, “Prediction method for lipidosis” (Takeda Pharmaceutical Company Limited, priority 2003, dated 2008).

The subject of data set [1] is Crj: CD(SD)IGS rats. Description: Urinary PAG/hippuric acid ratio by 1H NMR in rats.
Procedure: During the urine pooling, the collecting vessels were kept in an ice-cooled condition. After the urine collection, the urine was centrifuged at 1500×g for 10 minutes, and not less than 1 mL of the supernatant was collected and stored under freezing (below −70° C.) in a microtube in an ultralow-temperature freezer until the measurement. For the negative control group, 24-hour pooled urine was collected under ice cooling; after the urine collection, the urine was stored at −30° C. until the measurement.
In data set [2] the test system is Crj: CD(SD)IGS rats. To be noted: rat, in vivo. The protocol: The following 10 kinds of commercially available drugs were examined as the test compounds for a potential of inducing PLsis by histopathological examination and peripheral blood lymphocyte testing.
The following experiments were performed using the prematurely autopsied animals.
The high-dose dosing suspension was diluted about 3 fold and 10 fold with dispersant/solvent to prepare intermediate- and low-dose dosing suspensions. […] [For LD50, the Summary Basis of Approval (FDA) for each drug was referenced to.]
The animals were examined for mortality, general conditions, body weight, food consumption and the like using PM4800 (Mettler) and EB3200D (Shimadzu Corporation).

[3] abbreviates: rat 24-hour pooled urine, 30 mg/kg/day by gavage, 4 days, negative control drug, mean n = 2-4.
The mark [4] stands for this setting: rat 24-hour pooled urine, 100 mg/kg/day by gavage, 4 days, negative control drug, mean n = 2-4.
The mark [5] stands for this setting: rat urine, 25 mg/kg/day by gavage, 3 days, mean n = 3-4.
[6] abbreviates: rat urine, 75 mg/kg/day by gavage, 3 days, mean n = 3-4.
[7] abbreviates: rat urine, 250 mg/kg/day by gavage, 3 days, mean n = 3-4.
Setting [8] is: rat urine, 100 mg/kg/day by gavage, 3 days, mean n = 3-4.
Where [9] appears, read: rat urine, 300 mg/kg/day by gavage, 3 days, mean n = 3-4.
Where [10] appears, read: rat 24-hour pooled urine, 1 mg/kg/day by gavage, 4 days, negative control drug, mean n = 2-4.
Where [11] appears, read: rat 24-hour pooled urine, 3 mg/kg/day by gavage, 4 days, negative control drug, mean n = 2-4.
Where [12] appears, read: rat urine, 1000 mg/kg/day by gavage, 3 days, mean n = 3-4.

Consider `COc1ccc([C@]2(C#N)CC[C@@H](C(=O)O)CC2)cc1OC1CCCC1` [Ariflo], for which, in data set [1] (setting [3]), the “PAG + hippuric acid/creatinine” value is given as 1.34, the “PAG/PAG + hippuric acid” value turned out to be 9.70%, the “PAG/creatinine (first term of PAG + hippuric acid)” value (from here on “PAG/creatinine”) is given as 0.13 and the PAG/hippuric acid is 12.16%. In data set [1] (setting [4]), the “PAG + hippuric acid/creatinine” value was determined as 1.14, the “PAG/PAG + hippuric acid” value was found to be 14.04%, the “PAG/creatinine” value was 0.16 and the PAG/hippuric acid is 13.91%. The “hippuric acid/creatinine (second term of PAG + hippuric acid)” value in data set [1] (setting [4]) is given as 0.98. In data set [2] (30 mg/kg/day), the “Histopathological changes (PLsis): Liver” value was “−”, the “Histopathological changes (PLsis): Lung” value is on record as “−”, the “Histopathological changes (PLsis): Lymph node” value is recorded as “−” and the “Histopathological changes (PLsis): Others” value is given as “−”. In data set [2] (30 mg/kg/day), the “Histopathological changes (PLsis): Spleen” value is reported as “−”. In addition, in data set [2] (100 mg/kg/day), the “Histopathological changes (PLsis): Liver” value is “−”, the “Histopathological changes (PLsis): Lung” value was “−”, the “Histopathological changes (PLsis): Lymph node” value is reported as “−” and the “Histopathological changes (PLsis): Others” value was “−”. The “Histopathological changes (PLsis): Spleen” value in data set [2] (100 mg/kg/day) is on record as “−”.

For the compound `CCN(CC)CCCC(C)Nc1ccnc2cc(Cl)ccc12` (stereo not drawn) [Chloroquine, chloroquine], in data set [1] (setting [5]), the “PAG + hippuric acid/creatinine” value is given as 1.34, the “PAG/PAG + hippuric acid” value turned out to be 13.25%, the “PAG/creatinine” value was determined as 0.18 and the PAG/hippuric acid was 15.42%. Also, in data set [1] (setting [6]), the “PAG + hippuric acid/creatinine” value amounted to 1.23, the “PAG/creatinine” value stood at 0.24 and the “hippuric acid/creatinine (second term of PAG + hippuric acid)” value is 1.00. Moreover, in data set [1] (setting [7]), the “PAG + hippuric acid/creatinine” value was found to be 1.29, the “PAG/creatinine” value was 0.52 and the “hippuric acid/creatinine (second term of PAG + hippuric acid)” value is reported as 0.76.

On to `CN(C)CCCN1c2ccccc2CCc2ccccc21` [Imipramine, imipramine], for which, in data set [1] (setting [8]), the “PAG + hippuric acid/creatinine” value was found to be 1.21, the “PAG/creatinine” value came to 0.34 and the “hippuric acid/creatinine (second term of PAG + hippuric acid)” value came out at 0.87. Further, in data set [1] (setting [9]), the “PAG + hippuric acid/creatinine” value is on record as 0.71*, the “PAG/creatinine” value was determined as 0.40 and the “hippuric acid/creatinine (second term of PAG + hippuric acid)” value was determined as 0.31.

As to `O=C(Nc1c(Cl)cncc1Cl)c1ccc(OC(F)F)c(OCC2CC2)c1` [Roflumilast, roflumilast], in data set [1] (setting [10]), the “PAG + hippuric acid/creatinine” value was found to be 1.39, the “PAG/PAG + hippuric acid” value is recorded as 10.79%, the “PAG/creatinine” value amounted to 0.15 and the PAG/hippuric acid stood at 12.09%. Moreover, the “hippuric acid/creatinine (second term of PAG + hippuric acid)” value in data set [1] (setting [10]) amounted to 1.24. Further, in data set [1] (setting [11]), the “PAG + hippuric acid/creatinine” value turned out to be 1.39, the “PAG/PAG + hippuric acid” value is listed as 15.11%, the “PAG/creatinine” value is listed as 0.21 and the PAG/hippuric acid is reported as 15.41%. Also, the “hippuric acid/creatinine (second term of PAG + hippuric acid)” value in data set [1] (setting [11]) is on record as 1.18. In data set [2] (1 mg/kg/day), the “Histopathological changes (PLsis): Liver” value is listed as “−”, the “Histopathological changes (PLsis): Lung” value was “−”, the “Histopathological changes (PLsis): Lymph node” value is given as “−” and the “Histopathological changes (PLsis): Others” value is “−”. Also, the “Histopathological changes (PLsis): Spleen” value in data set [2] (1 mg/kg/day) is listed as “−”. Further, in data set [2] (3 mg/kg/day), the “Histopathological changes (PLsis): Liver” value is “−”, the “Histopathological changes (PLsis): Lung” value is given as “−”, the “Histopathological changes (PLsis): Lymph node” value is given as “−” and the “Histopathological changes (PLsis): Others” value is “−”. Also, the “Histopathological changes (PLsis): Spleen” value in data set [2] (3 mg/kg/day) is “−”.

Turning to `COc1ccc(C2CNC(=O)C2)cc1OC1CCCC1` (stereo not drawn) [Rolipram, rolipram], in data set [1] (setting [3]), the “PAG + hippuric acid/creatinine” value was determined as 1.43, the “PAG/PAG + hippuric acid” value is on record as 17.48%, the “PAG/creatinine” value is 0.25 and the PAG/hippuric acid was found to be 18.22%. The “hippuric acid/creatinine (second term of PAG + hippuric acid)” value in data set [1] (setting [3]) was 1.18. In data set [1] (setting [4]), the “PAG + hippuric acid/creatinine” value came out at 1.02, the “PAG/PAG + hippuric acid” value came to 13.73%, the “PAG/creatinine” value was found to be 0.14 and the PAG/hippuric acid is 16.29%. The “hippuric acid/creatinine (second term of PAG + hippuric acid)” value in data set [1] (setting [4]) came out at 0.88. In data set [2] (30 mg/kg/day), the “Histopathological changes (PLsis): Liver” value is reported as “−”, the “Histopathological changes (PLsis): Lung” value is reported as “−”, the “Histopathological changes (PLsis): Lymph node” value is given as “−” and the “Histopathological changes (PLsis): Others” value is “−”. Further, the “Histopathological changes (PLsis): Spleen” value in data set [2] (30 mg/kg/day) was “−”. Also, in data set [2] (100 mg/kg/day), the “Histopathological changes (PLsis): Liver” value was “−”, the “Histopathological changes (PLsis): Lung” value is “−”, the “Histopathological changes (PLsis): Lymph node” value is “−” and the “Histopathological changes (PLsis): Others” value is “−”. Besides, in data set [2] (100 mg/kg/day), the “Histopathological changes (PLsis): Spleen” value is “−”.

As for `CC/C(=C(\c1ccccc1)c1ccc(OCCN(C)C)cc1)c1ccccc1` [Tamoxifen, tamoxifen], in data set [1] (setting [8]), the “PAG + hippuric acid/creatinine” value is 1.34, the “PAG/creatinine” value was found to be 0.31 and the “hippuric acid/creatinine (second term of PAG + hippuric acid)” value worked out at 1.02. For the same compound, in data set [1] (setting [9]), the “PAG + hippuric acid/creatinine” value is listed as 1.16, the “PAG/creatinine” value came out at 0.63 and the “hippuric acid/creatinine (second term of PAG + hippuric acid)” value amounted to 0.53. In data set [1] (setting [12]), the “PAG + hippuric acid/creatinine” value is 1.58, the “PAG/creatinine” value is listed as 0.91 and the “hippuric acid/creatinine (second term of PAG + hippuric acid)” value came to 0.67. Moreover, in data set [2] (100 mg/kg/day), the “Histopathological changes (PLsis): Liver” value is recorded as “−”, the “Histopathological changes (PLsis): Lung” value was “+”, the “Histopathological changes (PLsis): Lymph node” value is given as “+” and the “Histopathological changes (PLsis): Others” value is reported as “−”. Besides, in data set [2] (100 mg/kg/day), the “Histopathological changes (PLsis): Spleen” value was “−”. In addition, in data set [2] (300 mg/kg/day), the “Histopathological changes (PLsis): Liver” value was “+”, the “Histopathological changes (PLsis): Lung” value is “+”, the “Histopathological changes (PLsis): Lymph node” value is listed as “+” and the “Histopathological changes (PLsis): Others” value is “−”. Moreover, the “Histopathological changes (PLsis): Spleen” value in data set [2] (300 mg/kg/day) is given as “−”. In addition, in data set [2] (1000 mg/kg/day), the “Histopathological changes (PLsis): Liver” value is reported as “+”, the “Histopathological changes (PLsis): Lung” value is given as “+”, the “Histopathological changes (PLsis): Lymph node” value is “+” and the “Histopathological changes (PLsis): Others” value is reported as “−”. Besides, in data set [2] (1000 mg/kg/day), the “Histopathological changes (PLsis): Spleen” value is recorded as “−”.
